In brackets after ≈: the same amount, converted by molar mass. Activity calls are given as the source filed them. The rule behind the calls is not given here. Square brackets hold non-standard residues; d marks the D form. Peptide text beside a SMILES is read from it. Dip = N[C@H](C(=O)O)C(c1ccccc1)c1ccccc1; 2Nal = N[C@@H](Cc1ccc2ccccc2c1)C(=O)O
Tests used:
Staphylococcus aureus [1] = experiment: Antibacterial activity against methicillin resistant Staphylococcus aureus ATCC BAA-1556 after 24 hrs in presence of 1 mM of by microtiter plate method; assay type: functional
Lipid bilayer [2] = experiment: Membrano-lytic effect in bacterial inner membrane mimic DOPC/DOPG (7:3) large unilamellar vesicles assessed as calcein leakage measured at 50 microg/ml, incubated for 40 mins by multimode microplate reader assay; assay type: cell membranes; conditions: dose 50.0 µg/ml
Escherichia coli [3] = experiment: Antibacterial activity against Escherichia coli ATCC 25922 after 24 hrs in presence of fetal bovine serum by microtiter plate method; assay type: functional
[4] = Cytotoxicity against human MRC-5 assessed as cell viability at 150 ug/ml incubated for 24 hrs by microplate spectrophotometer analysis method relative to control; assay type: toxicity, cell-based, MRC5; conditions: MRC-5 cells, at 150 µg/mL, read-out: Activity
[5] = Cytotoxicity against human MRC5 assessed as cell viability at 50 ug/ml incubated for 24 hrs by microplate spectrophotometer analysis method relative to control; assay type: toxicity, cell-based; conditions: MRC5 cells, at 50 µg/mL, read-out: Activity
Streptococcus pneumoniae = experiment: Antibacterial activity against […] ATCC 49619 incubated for 24 hrs by microtiter plate method; assay type: functional
Bacillus subtilis = experiment: Antibacterial activity against Bacillus subtilis ATCC 6633 incubated for 24 hrs by microtiter plate method; assay type: functional
Cell membrane [6] = experiment: Membrano-lytic effect in cytoplasmic membrane of Escherichia coli ATCC BAA-2452 assessed as disruption by measuring propidium iodide fluorescence at 4 times MIC incubated for 1 hr by FACscan flow cytometer analysis
Enterococcus faecalis = experiment: Antibacterial activity against Enterococcus faecalis ATCC 29212 incubated for 24 hrs by microtiter plate method; assay type: functional
Enterococcus faecium [7] = experiment: Antibacterial activity against vancomycin-resistant Enterococcus faecium ATCC 700221 incubated for 24 hrs by microtiter plate method; assay type: functional
Staphylococcus aureus [8] = experiment: Antibacterial activity against methicillin resistant Staphylococcus aureus ATCC BAA-1556 after 24 hrs in presence of 150 mM of NaCl by microtiter plate method; assay type: functional
Escherichia coli [9] = experiment: Bactericidal activity against Escherichia coli ATCC BAA-2452 assessed as reduction of bacterial growth at 4 times MIC by counting formed colonies; assay type: functional, organism-based; conditions: time <= 4.0 hrs, TDE = time-dependent effect
Cell membrane [10] = experiment: Membrano-lytic effect in cytoplasmic membrane of methicillin resistant Staphylococcus aureus ATCC BAA-1556 assessed as disruption by measuring propidium iodide fluorescence incubated for 1 hr by FACscan flow cytometer analysis; conditions: DDE = dose-dependent effect
Staphylococcus aureus [11] = experiment: Antibacterial activity against methicillin resistant Staphylococcus aureus ATCC BAA-1556 after 24 hrs in presence of 6 mM of NH4Cl by microtiter plate method; assay type: functional
[12] = Cytotoxicity against HEK293 assessed as cell viability at 150 ug/ml incubated for 24 hrs by microplate spectrophotometer analysis method relative to control; assay type: toxicity, cell-based; conditions: human, HEK293 cells, at 150 µg/mL, read-out: Activity
Lipid bilayer [13] = experiment: Membrano-lytic effect in bacterial inner membrane mimic DOPC/DOPG (7:3) large unilamellar vesicles assessed as calcein leakage measured at 5 microg/ml, incubated for 30 mins by multimode microplate reader assay; assay type: cell membranes; conditions: dose 5.0 µg/ml
Lipid bilayer [14] = experiment: Induction of membrane disruption in bacterial inner membrane mimic DOPC/DOPG (7:3) large unilamellar vesicles assessed as decrease in particle size of liposome at 1:1 compound to lipid ratio measured after 90 mins by dynamic light scattering analysis; assay type: cell membranes
Enterococcus faecium [15] = experiment: Antibacterial activity against Enterococcus faecium ATCC 27270 incubated for 24 hrs by microtiter plate method; assay type: functional
Acinetobacter baumannii = experiment: Antibacterial activity against ciprofloxacin resistance Acinetobacter baumannii ATCC BAA1605 incubated for 24 hrs by microtiter plate method; assay type: functional
Staphylococcus aureus [16] = experiment: Antibacterial activity against methicillin resistant Staphylococcus aureus ATCC BAA-1556 after 24 hrs in presence of fetal bovine serum by microtiter plate method; assay type: functional
Klebsiella pneumoniae = experiment: Antibacterial activity against carbapenem-resistant Klebsiella pneumoniae ATCC BAA-2470 incubated for 24 hrs by microtiter plate method; assay type: functional
[17] = Cytotoxicity against HEK293 assessed as cell viability at 50 ug/ml incubated for 24 hrs by microplate spectrophotometer analysis method relative to control; assay type: toxicity, cell-based; conditions: human, HEK293 cells, at 50 µg/mL, read-out: Activity
Pseudomonas aeruginosa = experiment: Antibacterial activity against imipenem resistant Pseudomonas aeruginosa ATCC BAA-1744 incubated for 24 hrs by microtiter plate method; assay type: functional
HepaRG = experiment: Cytotoxicity against human HPRGC10 assessed as cell viability at 50 ug/ml incubated for 24 hrs by microplate spectrophotometer analysis method relative to control; assay type: functional; conditions: read-out: Activity
Lipid bilayer [18] = experiment: Membrano-lytic effect in bacterial inner membrane mimic DOPC/DOPG (7:3) large unilamellar vesicles assessed as calcein leakage measured at 50 microg/ml, incubated for 50 mins by multimode microplate reader assay; assay type: cell membranes; conditions: dose 50.0 µg/ml

Row | Structure (SMILES) | MIC (Staphylococcus aureus [1]) | MIC (Escherichia coli [3]) | viability at 24 h, 150 ug/ml [4] | viability at 24 h, 50 ug/ml [5] | MIC (Streptococcus pneumoniae) | MIC (Bacillus subtilis) | Activity (Cell membrane [6]) | MIC (Enterococcus faecalis) | MIC (Enterococcus faecium [7]) | MIC (Staphylococcus aureus [8]) | Activity (Escherichia coli [9]) | Activity (Cell membrane [10]) | MIC (Staphylococcus aureus [11]) | viability at 24 h, 150 ug/ml [12] | Activity (Lipid bilayer [13]) | Activity (Lipid bilayer [14]) | MIC (Enterococcus faecium [15]) | MIC (Acinetobacter baumannii) | MIC (Staphylococcus aureus [16]) | MIC (Klebsiella pneumoniae) | other results
1 | N=C(N)NCCC[C@@H]1NC(=O)[C@H](CCCNC(=N)N)NC(=O)[C@H](CCCNC(=N)N)NC(=O)[C@H](Cc2ccc3ccccc3c2)NC(=O)[C@H](Cc2ccc3ccccc3c2)NC(=O)[C@H](Cc2ccc3ccccc3c2)NC(=O)[C@H](CCCNC(=N)N)NC1=O (cyclo(RRRR[2Nal][2Nal][2Nal])) | 3.1 µg/mL | > 50 µg/mL | 36% | 93% | 25 µg/mL (≈ 20.6 µM) | 1.5 µg/mL (≈ 1.23 µM) | 88% | 3.1 µg/mL (≈ 2.55 µM) | 3.1 µg/mL (≈ 2.55 µM) | 3.1 µg/mL | Tde | Dde | 3.1 µg/mL | 58% | 30% | Active | 3.1 µg/mL (≈ 2.55 µM) | 12.5 µg/mL (≈ 10.3 µM) | 6.2 µg/mL | 12.5 µg/mL (≈ 10.3 µM) | Activity (Lipid bilayer [2]): 100%; viability at 24 h, 50 ug/ml [17]: 80%; MIC (Pseudomonas aeruginosa): 12.5 µg/mL (≈ 10.3 µM); viability at 50 µg/mL (HepaRG): 93%
2 | N=C(N)NCCC[C@@H]1NC(=O)[C@H](CCCNC(=N)N)NC(=O)[C@H](CCCNC(=N)N)NC(=O)[C@H](C(c2ccccc2)c2ccccc2)NC(=O)[C@H](C(c2ccccc2)c2ccccc2)NC(=O)[C@H](C(c2ccccc2)c2ccccc2)NC(=O)[C@H](CCCNC(=N)N)NC1=O (cyclo(RRRR[Dip][Dip][Dip])) | 6.2 µg/mL | 50 µg/mL | 36% | 93% | 25 µg/mL (≈ 19.3 µM) | 1.5 µg/mL (≈ 1.16 µM) | 78% | 3.1 µg/mL (≈ 2.39 µM) | 3.1 µg/mL (≈ 2.39 µM) | 3.1 µg/mL | Tde | Dde | 3.1 µg/mL | 58% | 30% | Active | 3.1 µg/mL (≈ 2.39 µM) | 12.5 µg/mL (≈ 9.66 µM) | 6.2 µg/mL | 12.5 µg/mL (≈ 9.66 µM) | Activity (Lipid bilayer [18]): 100%; viability at 24 h, 50 ug/ml [17]: 80%; MIC (Pseudomonas aeruginosa): 12.5 µg/mL (≈ 9.66 µM); viability at 50 µg/mL (HepaRG): 93%
